Data as given in patent US8901314B2, “Substituted pyrazoles as N-type calcium channel blockers” (Janssen Pharmaceutica NV, priority 2012, dated 2014).

Key:
[1] = tested on: Cav2.2 (N-type calcium channel; α1B, α2δ and β3 subunits stably expressed in HEK293 cells); assay: Automated electrophysiology assay (QPatch-HT patch clamp); assay type: cell-based; settings: 0.1 μM; for QPatch % Inhibition, High Freq: high frequency stimulation (15th pulse of 5 Hz train); for QPatch % Inhibition, Low Freq: low frequency stimulation (1st pulse of train)
Protocol: The Cav2.2 (α1B) subunit (GenBank accession no. AAO53230; supplied by Lipscombe's laboratory at Brown University) was subcloned into pcDNA3.1, whereas the α2δ (M86621) and β3 (M88751) subunits were subcloned into pBudCE4.1 vectors. Stable cell lines expressing all three subunits were generated according to the following procedure: 1) HEK293 cells were transfected with α2δ−1/β3 expression constructs resulting in a stable cell line expressing α2δ−1 and β3 subunits that were selected under 200 μg/mL of Zeocin; 2) a stable cell line expressing α2δ−1/β3 subunits in high quantity as evidenced in its Western blots was isolated from the colony and purified; 3) this cell line was further transfected with Cav2.2 expression constructs, from which cells were subsequently selected under 400 μg/mL G418 and 200 μg/mL Zeocin; 4) these cells were clonally isolated, expanded and screened by Western blot analysis for expressing all three subunits
Cultures of cells stably expressing Cav2.2 were maintained at 37° C. in low glucose-containing Dulbecco's Modified Eagle medium (low glucose) under a 5% CO2 atmosphere. The medium was supplemented with 10% fetal bovine serum, 2 mM L-glutamine, 100 IU/mL penicillin, […] streptomycin, 400 μg/mL G418 and 200 μg/mL Zeocin.
High-throughput automated patch clamp system experiments were carried out using instruments (QPatch-HT) available from Sophion Biosciences, Inc. North Brunswick, N.J. Cells were grown in T175 flasks to 50%-90% confluence were enzymatically treated with Deatchin (Genlantis, San Diego, Calif., U.S.A.), centrifuged, rinsed and resuspended in 293 SFM II media (Life Technologies, Grand Island, N.Y., U.S.A.) supplemented with 25 mM HEPES (Sigma-Aldrich, St. Louis, Mo., U.S.A.) to a concentration of 2−3×10^6 cells/mL. Cells were added to automated cell preparation station on the QPatch-HT (Sophion Biosciences, North Brunswick, N.J., U.S.A.) and following a 10- to 30-min recovery period with gentle stirring, the assay protocol was initiated. During the automated cell preparation, cells were collected, centrifuged and resuspended in an extracellular (EC) solution containing 132 mM NaCl, 1.8 mM CaCl2, 5.4 mM KCl, 0.8 mM MgCl2, 10 mM glucose, and 10 mM HEPES (pH=7.4), adjusted with sucrose to 315 m0sm. The QPlate was primed with an intracellular solution containing 135 CsCl, 10 mM EGTA, 4 MgATP, 0.3 NaGTP, and 20 mM HEPES (pH=7.2), adjusted to approximately 290 m0sm with deionized water and the EC solution. Cells were added to the prepared QPlate wells by robotic pipettes of the QPatch-HT.
For cells determined to be in stable whole-cell patch clamp, the EC solution was replaced with a barium (Ba)/triethylammonium (TEA) solution containing 140 mM TEA-Cl, 10 mM BaCl2, 0.8 mM MgCl2, 10 mM glucose, and 10 mM HEPES (pH=7.4). High (40 mM) BaCl2 concentrations were made with adjustments of TEA-Cl (90 mM) to maintain the osmolarity. From a resting potential of −80 mV, a train of depolarizing pulses (15 pulses at 5 Hz, +20 mV) was delivered to the cell once every 30 sec for eight trains (4 min total), and the resulting currents were measured during a control period (no compound). This protocol was repeated for each subsequent addition of control buffer with or without compound (three periods total, each with four trains). The current generated in the 1st and 15th pulses of the last train of each period in the presence of each drug concentration was normalized to the current generated during the control period at the respective pulses (representing low- and high frequency stimulation, respectively). Data from both the second and third drug application period were analyzed for each cell. A final addition of Ba/TEA solution containing 60-100 uM CdCl2 was made to block all N-type current and “zero” the currents for each cell. A buffer/compound additions were made using a “spitting” feature of the QPatch-HT, which added three repretitions of 5 μL solution at the beginning of each recording period.

[2] = target: α1B (Cav2.2), β3 and α2δ subunits of the N-type calcium channel (stable HEK cell line) (Rattus norvegicus, UniProt Q02294); assay: Calcium-dye indicator assay (FDSS, KCl depolarization); assay type: cell-based; settings: calcium mobilization response to 50 mM KCl; six-point concentration-response
Protocol: A stable cell line (HEK parent) co-expressing the α1B (Cav2.2), β3 and α2δ subunits of the N-type calcium channel subunits was used. These cells were routinely grown as monolayers in low glucose-containing Dulbecco's Modified Eagle Medium supplemented with 10% FBS, 2 mM L-glutamine, 100 I.U./mL penicillin, 100 μg/mL streptomycin, 400 μg/mL G418 and 200 μg/mL Zeocin (split ratio=1:5). Cells were maintained in 5% CO2 at 37° C. Compounds of Formula (I) were prepared as 10 mM stocks in DMSO from neat compound, if available. Otherwise, the 5 or 10 mM DMSO stock solutions provided in-house were used.
Calcium mobilization responses to KCl depolarization were evaluated by measuring the intensity of calcium-mediated fluorescent signal in the presence of BD Calcium Assay Dye (BD Biosciences, Franklin Lakes, N.J., U.S.A.), utilizing a Functional Drug Screening System (FDSS) by Hamamatsu Corporation (Bridgewater, N.J., U.S.A.).
Twenty-four hours prior to assay, cells were seeded in clear-base poly-D-lysine coated 384-well plates (BD Biosciences) at a density of 5,000 cells per well in culture medium and grown overnight in 5% CO2 at 37° C. On the day of assay growth media were removed and cells were loaded with BD calcium assay dye (BD Biosciences) for 35 min at 37° C. under 5% CO2 and then for 25 min at room temperature. Utilizing the FDSS, cells were exposed to representative compounds of Formula (I) at varying concentrations and intracellular calcium was measured for 5 min prior to the addition of 50 mM KCl for an additional 3 min of measurement.
Maximal fluorescence intensity (FI) achieved upon addition of 50 mM KCl was exported from the FDSS software and further analyzed using GraphPad Prism 4 (Graph Pad Software Inc., CA, U.S.A.). Data were normalized to the maximum average counts from quadruplicate wells for each condition in the presence of 50 mM KCl and to the minimum average counts in the presence of buffer. Theoretical curves were generated using nonlinear regression curve-fitting analysis of either sigmoidal concentration-response or sigmoidal concentration-response (variable slope), and the IC50 values with the best-fit dose curve determined by GraphPad Prism were reported.

| SMILES | IC50 [2] [nM] | QPatch % Inhibition, High Freq [1] [%] | QPatch % Inhibition, Low Freq [1] [%] |
| --- | --- | --- | --- |
| COc1ccccc1-n1nc(C2=C[C@H](C)O[C@@H](C)C2)cc1-c1ccc(Cl)cc1 (relative stereo) [Compound 96, 5-(4-Chlorophenyl)-3-[(trans)-2,6-dimethyl-3,6-dihydro-2H-pyran-4-yl]-1-(2-methoxyphenyl)-1H-pyrazole] | 8.2 | 29 | −20 |
| COc1ccccc1-n1nc(C2CC(C)(C)OC(C)(C)C2)cc1-c1ccc(Cl)cc1 [Compound 1, 5-(4-Chloro-phenyl)-1-(2-methoxy-phenyl)-3-(2,2,6,6-tetramethyl-tetrahydro-pyran-4-yl)-1H-pyrazole] | 1.7 | 63 | 58 |
| COc1ccccc1-n1nc(C2CC(C)(C)OC(C)(C)C2)cc1-c1ccc(C#N)cc1 [Compound 2, 4-[1-(2-Methoxyphenyl)-3-(2,2,6,6-tetramethyltetrahydro-2H-pyran-4-yl)-1H-pyrazol-5-yl]-benzonitrile] | 1.1 | 53.5 | 56.5 |
| CCOc1ccc(-c2cc(C3CC(C)(C)OC(C)(C)C3)nn2-c2ccccc2OC)cc1 [Compound 9, 5-(4-Ethoxyphenyl)-1-(2-methoxyphenyl)-3-(2,2,6,6-tetramethyltetrahydro-2H-pyran-4-yl)-1H-pyrazole] | 2.3 | 47.5 | 34 |
| COc1ccc(-c2cc(C3CC(C)(C)OC(C)(C)C3)nn2-c2ccccc2OC)cn1 [Compound 13, 2-Methoxy-5-[1-(2-methoxyphenyl)-3-(2,2,6,6-tetramethyltetrahydro-2H-pyran-4-yl)-1H-pyrazol-5-yl]pyridine] | 4.9 | 47.5 | 32 |
| COc1ccccc1-n1nc(C2CC(C)(C)OC(C)(C)C2)cc1-c1ccc(Cl)s1 [Compound 14, 5-(5-Chlorothiophen-2-yl)-1-(2-methoxyphenyl)-3-(2,2,6,6-tetramethyltetrahydro-2H-pyran-4-yl)-1H-pyrazole] | 6.2 | 74.5 | 63 |
| COc1ccccc1-n1nc(C2CC(C)(C)OC(C)(C)C2)cc1-c1ccc(C(C)(C)C)cc1 [Compound 15, 5-(4-tert-Butylphenyl)-1-(2-methoxyphenyl)-3-(2,2,6,6-tetramethyltetrahydro-2H-pyran-4-yl)-1H-pyrazole] | 4.9 | 37 | 20 |
| COc1ccccc1-n1nc(C2CC(C)(C)OC(C)(C)C2)cc1-c1ccccc1 [Compound 16, 1-(2-Methoxyphenyl)-5-phenyl-3-(2,2,6,6-tetramethyltetrahydro-2H-pyran-4-yl)-1H-pyrazole] | 5.1 | 51 | 37 |
| CCOC(=O)c1ccc(-c2cc(C3CC(C)(C)OC(C)(C)C3)nn2-c2ccccc2OC)cc1 [Compound 17, Ethyl 4-[1-(2-methoxyphenyl)-3-(2,2,6,6-tetramethyltetrahydro-2H-pyran-4-yl)-1H-pyrazol-5-yl]benzoate] | 5.1 | 82 | 84 |

Continued, in another order:

| IC50 [2] [nM] | SMILES | QPatch % Inhibition, High Freq [1] [%] | QPatch % Inhibition, Low Freq [1] [%] |
| --- | --- | --- | --- |
| 1 | COc1ccccc1-n1nc(C2CC(C)(C)OC(C)(C)C2)cc1-c1ccc(Cl)cc1F [Compound 3, 5-(4-Chloro-2-fluorophenyl)-1-(2-methoxyphenyl)-3-(2,2,6,6-tetramethyltetrahydro-2H-pyran-4-yl)-1H-pyrazole] | 42 | 34 |
| 1 | COc1ccccc1-n1nc(C2CC(C)(C)OC(C)(C)C2)cc1-c1ccc2c(c1)OCO2 [Compound 4, 5-(1,3-Benzodioxol-5-yl)-1-(2-methoxyphenyl)-3-(2,2,6,6-tetramethyltetrahydro-2H-pyran-4-yl)-1H-pyrazole] | 39 | 35 |
| 1.3 | COc1ccc(-c2cc(C3CC(C)(C)OC(C)(C)C3)nn2-c2ccccc2OC)cc1 [Compound 5, 1-(2-Methoxyphenyl)-5-(4-methoxyphenyl)-3-(2,2,6,6-tetramethyltetrahydro-2H-pyran-4-yl)-1H-pyrazole] | 67 | 59 |
| 1.1 | COc1ccccc1-n1nc(C2CC(C)(C)OC(C)(C)C2)cc1-c1ccc(SC)cc1 [Compound 6, 1-(2-Methoxyphenyl)-5-[4-(methylsulfanyl)phenyl]-3-(2,2,6,6-tetramethyltetrahydro-2H-pyran-4-yl)-1H-pyrazole] | 48 | 48 |
| 1.6 | COc1ccccc1-n1nc(C2CC(C)(C)OC(C)(C)C2)cc1C1=CCC(C)(C)CC1 [Compound 8, 5-(4,4-Dimethylcyclohex-1-en-1-yl)-1-(2-methoxyphenyl)-3-(2,2,6,6-tetramethyltetrahydro-2H-pyran-4-yl)-1H-pyrazole] | 40 | 37 |
| 2 | COc1ccccc1-n1nc(C2CC(C)(C)OC(C)(C)C2)cc1-c1ccc(C)cc1 [Compound 10, 1-(2-Methoxyphenyl)-5-(4-methylphenyl)-3-(2,2,6,6-tetramethyltetrahydro-2H-pyran-4-yl)-1H-pyrazole] | 38 | 46 |
| 2.6 | COc1ccccc1-n1nc(C2CC(C)(C)OC(C)(C)C2)cc1-c1ccc(C(C)=O)cc1 [Compound 12, 1-{4-[1-(2-Methoxyphenyl)-3-(2,2,6,6-tetramethyltetrahydro-2H-pyran-4-yl)-1H-pyrazol-5-yl]phenyl}ethanone] | 41 | 30 |
